The values that follow come from article PMC11931604 (Drug Development Research, 2025).

Entries after “also recorded” stand apart in the source; their conditions may differ. Read-outs that look alike come from different tables or passages of the source.

The test system of data set [1] is A/H1N1 (strain A/Ned/378/05). Briefly: CPE reduction assay in MDCK cells, influenza A/H1N1. In kind it is cell-based. To be noted: Influenza A virus.
The next data set deals with A/H3N2 (A/HK/7/87). Briefly: microbe, parasite or virus in culture. In kind it is cell-based, influenza A virus. The following applies: for EC50: Influenza A virus, H3N2, MDCK; for anti-A/H3N2 activity (in words): MDCK cells.
For a further data set, the system named is IBV (B/Ned/537/05). Briefly: CPE reduction assay in MDCK cells, influenza B virus. The class given is cell-based.
The nature of the next data set: in vitro. The following applies: dog.
[2] abbreviates: read-out: Antiviral EC50 A/H1N1 CPE.
[3] abbreviates: read-out: Antiviral EC50 A/H1N1 MTS.
The mark [4] stands for this setting: read-out: Antiviral EC50 A/H3N2 CPE.
The mark [5] stands for this setting: read-out: Antiviral EC50 A/H3N2 MTS.
[6] abbreviates: read-out: Antiviral EC50 IBV CPE.
Setting [7] is: read-out: Antiviral EC50 IBV MTS.

Regarding `CCC1CCC2(CC1)SC(C)C(=O)N2NC(=O)c1ccc(C(C)(C)C)cc1` (stereo not drawn) [Compound 2d, 4‐(tert‐Butyl)‐N‐(8‐ethyl‐2‐methyl‐3‐oxo‐1‐thia‐4‐azaspiro[4.5]decan‐4‐yl)benzamide], the EC50 (in data set [1] (setting [2]); in data set [1] (setting [3]); in the data set with A/H3N2 (A/HK/7/87) (setting [4]); in the data set with A/H3N2 (A/HK/7/87) (setting [5]); in the data set with IBV (B/Ned/537/05) (setting [6]); with IBV (B/Ned/537/05) (setting [7])) was above 100 µM each time. Moreover, the CC50 in the data set “in vitro” stood at 13 µM.
`CC(N)C12CC3CC(CC(C3)C1)C2` (stereo not drawn) [Rimantadine, reference compound]: the EC50 in data set [1] (setting [2]) is 8 µM; in data set [1] (setting [3]) it was 8.7 µM; in the data set with A/H3N2 (A/HK/7/87) (setting [4]), 0.7 µM; in the data set with A/H3N2 (A/HK/7/87) (setting [5]) it was 0.8 µM; with IBV (B/Ned/537/05) (setting [6]) it was above 200 µM; in the data set with IBV (B/Ned/537/05) (setting [7]) it was above 200 µM. The same compound gave a CC50 in the data set “in vitro” above 200 µM.
`CCCC1CCC2(CC1)SCC(=O)N2NC(=O)c1ccc(C(C)(C)C)cc1` (stereo not drawn) [Compound 1e, 4‐(tert‐Butyl)‐N‐(3‐oxo‐8‐propyl‐1‐thia‐4‐azaspiro[4.5]decan‐4‐yl)benzamide]: the EC50 (in data set [1] (setting [2]); in data set [1] (setting [3]); with A/H3N2 (A/HK/7/87) (setting [4]); in the data set on A/H3N2 (A/HK/7/87) (setting [5]); with IBV (B/Ned/537/05) (setting [6]); in the data set on IBV (B/Ned/537/05) (setting [7])) was above 100 µM throughout. Also, the CC50 in the data set “in vitro” was above 100 µM.
On to `CC1CCCC2(C1)SCC(=O)N2NC(=O)c1ccc(C(C)(C)C)cc1` (stereo not drawn) [Compound 1b, 4‐(tert‐Butyl)‐N‐(7‐methyl‐3‐oxo‐1‐thia‐4‐azaspiro[4.5]decan‐4‐yl)benzamide], for which the EC50 (in data set [1] (setting [2]); in data set [1] (setting [3]); in the data set with A/H3N2 (A/HK/7/87) (setting [4]); in the data set on A/H3N2 (A/HK/7/87) (setting [5]); with IBV (B/Ned/537/05) (setting [6]); in the data set with IBV (B/Ned/537/05) (setting [7])) was above 100 µM in each case. The compound also returned a CC50 in “in vitro” of 11 µM.
With `CC1CCC2(CC1)SC(C)C(=O)N2NC(=O)c1ccc(C(C)(C)C)cc1` (stereo not drawn) [Compound 2c, 4‐(tert‐Butyl)‐N‐(2,8‐dimethyl‐3‐oxo‐1‐thia‐4‐azaspiro[4.5]decan‐4‐yl)benzamide], the EC50 in data set [1] (setting [2]) is above 100 µM; in data set [1] (setting [3]) it was above 100 µM; in the data set with A/H3N2 (A/HK/7/87) (setting [4]), 2.4 ± 0.8 µM; with A/H3N2 (A/HK/7/87) (setting [5]) it was 1.3 ± 0.3 µM; in the data set on IBV (B/Ned/537/05) (setting [6]), above 100 µM; in the data set with IBV (B/Ned/537/05) (setting [7]), above 100 µM. Besides, in “in vitro”, the CC50 was 39 ± 25 µM.
As to `CCCC1CCC2(CC1)SC(C)C(=O)N2NC(=O)c1ccc(C(C)(C)C)cc1` (stereo not drawn) [Compound 2e, 4‐(tert‐Butyl)‐N‐(2‐methyl‐3‐oxo‐8‐propyl‐1‐thia‐4‐azaspiro[4.5]decan‐4‐yl)benzamide], the EC50 (in data set [1] (setting [2]); in data set [1] (setting [3]); with A/H3N2 (A/HK/7/87) (setting [4]); in the data set on A/H3N2 (A/HK/7/87) (setting [5]); in the data set on IBV (B/Ned/537/05) (setting [6]); in the data set with IBV (B/Ned/537/05) (setting [7])) was above 100 µM each time. For the same compound, the CC50 in the data set “in vitro” is 14 µM.
On to `CC1CCCC2(C1)SC(C)C(=O)N2NC(=O)c1ccc(C(C)(C)C)cc1` (stereo not drawn) [Compound 2b, 4‐(tert‐Butyl)‐N‐(2,7‐dimethyl‐3‐oxo‐1‐thia‐4‐azaspiro[4.5]decan‐4‐yl)benzamide], for which the EC50 (in data set [1] (setting [2]); in data set [1] (setting [3]); in the data set with A/H3N2 (A/HK/7/87) (setting [4]); in the data set on A/H3N2 (A/HK/7/87) (setting [5]); with IBV (B/Ned/537/05) (setting [6]); with IBV (B/Ned/537/05) (setting [7])) was above 100 µM in each case. Moreover, in the data set with A/H3N2 (A/HK/7/87), the “anti-A/H3N2 activity (in words)” value is “devoid of antiviral activity”. Moreover, the CC50 in the data set “in vitro” turned out to be 78 µM.
For the compound `CCC1CCC2(CC1)SCC(=O)N2NC(=O)c1ccc(C(C)(C)C)cc1` (stereo not drawn) [Compound 1d, 4‐(tert‐Butyl)‐N‐(8‐ethyl‐3‐oxo‐1‐thia‐4‐azaspiro[4.5]decan‐4‐yl)benzamide], the EC50 (in data set [1] (setting [2]); in data set [1] (setting [3]); in the data set on A/H3N2 (A/HK/7/87) (setting [4]); in the data set with A/H3N2 (A/HK/7/87) (setting [5]); in the data set on IBV (B/Ned/537/05) (setting [6]); in the data set with IBV (B/Ned/537/05) (setting [7])) was above 100 µM each time. The CC50 in “in vitro” is above 100 µM.
On to `CC1SC2(CCC(C(C)(C)C)CC2)N(NC(=O)c2ccc(C(C)(C)C)cc2)C1=O` (stereo not drawn) [Compound 2f, 4‐(tert‐Butyl)‐N‐(8‐(tert‐butyl)‐2‐methyl‐3‐oxo‐1‐thia‐4‐azaspiro[4.5]decan‐4‐yl)benzamide], for which the EC50 (in data set [1] (setting [2]); in data set [1] (setting [3]); in the data set with A/H3N2 (A/HK/7/87) (setting [4]); in the data set with A/H3N2 (A/HK/7/87) (setting [5]); with IBV (B/Ned/537/05) (setting [6]); with IBV (B/Ned/537/05) (setting [7])) was above 100 µM each time. For the same compound, the CC50 in “in vitro” was above 100 µM.
Consider `CC(C)(C)c1ccc(C(=O)NN2C(=O)CSC23CCC(C(C)(C)C)CC3)cc1` (stereo not drawn) [Compound 1f, 4‐(tert‐Butyl)‐N‐(8‐(tert‐butyl)‐3‐oxo‐1‐thia‐4‐azaspiro[4.5]decan‐4‐yl)benzamide], for which the EC50 (in data set [1] (setting [2]); in data set [1] (setting [3]); with A/H3N2 (A/HK/7/87) (setting [4]); in the data set on A/H3N2 (A/HK/7/87) (setting [5]); in the data set on IBV (B/Ned/537/05) (setting [6]); in the data set with IBV (B/Ned/537/05) (setting [7])) was above 100 µM in each case. Moreover, the CC50 in the data set “in vitro” was above 100 µM.
For `CCC(CC)O[C@@H]1C=C(C(=O)O)C[C@H](N)[C@H]1NC(C)=O` [Oseltamivir carboxylate, reference compound], the EC50 in data set [1] (setting [2]) was determined as 0.5 µM; in data set [1] (setting [3]), 0.4 µM; in the data set on A/H3N2 (A/HK/7/87) (setting [4]), 0.8 µM; in the data set with A/H3N2 (A/HK/7/87) (setting [5]) it was 0.4 µM; in the data set on IBV (B/Ned/537/05) (setting [6]), 0.8 µM; with IBV (B/Ned/537/05) (setting [7]) it was 0.6 µM. This compound came in with a CC50 in the data set “in vitro” above 100 µM.
As to `NC(=O)c1ncn([C@@H]2O[C@H](CO)[C@@H](O)[C@H]2O)n1` [Ribavirin, reference compound], the EC50 in data set [1] (setting [2]) was 8.9 µM; in data set [1] (setting [3]), 7.1 µM; in the data set with A/H3N2 (A/HK/7/87) (setting [4]), 6.8 µM; with A/H3N2 (A/HK/7/87) (setting [5]) it was 1.3 µM; with IBV (B/Ned/537/05) (setting [6]) it was 9 µM; with IBV (B/Ned/537/05) (setting [7]) it was 5.3 µM. Moreover, in the data set “in vitro”, the CC50 is above 100 µM.
Regarding `CC(C)(C)c1ccc(C(=O)NN2C(=O)CSC23CCCCC3)cc1` [Compound 1a, 4‐(tert‐Butyl)‐N‐(3‐oxo‐1‐thia‐4‐azaspiro[4.5]decan‐4‐yl)benzamide], the EC50 (in data set [1] (setting [2]); in data set [1] (setting [3]); with A/H3N2 (A/HK/7/87) (setting [4]); in the data set with A/H3N2 (A/HK/7/87) (setting [5]); in the data set with IBV (B/Ned/537/05) (setting [6]); in the data set with IBV (B/Ned/537/05) (setting [7])) was above 100 µM in each case. This compound also registered a CC50 in the data set “in vitro” above 100 µM.
`CC1CCC2(CC1)SCC(=O)N2NC(=O)c1ccc(C(C)(C)C)cc1` (stereo not drawn) [Compound 1c, 4‐(tert‐Butyl)‐N‐(8‐methyl‐3‐oxo‐1‐thia‐4‐azaspiro[4.5]decan‐4‐yl)benzamide]: the EC50 (in data set [1] (setting [2]); in data set [1] (setting [3]); in the data set with A/H3N2 (A/HK/7/87) (setting [4]); in the data set on A/H3N2 (A/HK/7/87) (setting [5]); in the data set on IBV (B/Ned/537/05) (setting [6]); in the data set on IBV (B/Ned/537/05) (setting [7])) was above 100 µM each time. The “anti-A/H3N2 activity (in words)” value in the data set on A/H3N2 (A/HK/7/87) is “inactive; also recorded: lacks anti‐A/H3N2 activity”. In addition, the CC50 in “in vitro” is above 100 µM.
For `CC1SC2(CCCCC2)N(NC(=O)c2ccc(C(C)(C)C)cc2)C1=O` (stereo not drawn) [Compound 2a, 4‐(tert‐Butyl)‐N‐(2‐methyl‐3‐oxo‐1‐thia‐4‐azaspiro[4.5]decan‐4‐yl)benzamide], the EC50 (in data set [1] (setting [2]); in data set [1] (setting [3]); with A/H3N2 (A/HK/7/87) (setting [4]); in the data set on A/H3N2 (A/HK/7/87) (setting [5]); in the data set on IBV (B/Ned/537/05) (setting [6]); in the data set with IBV (B/Ned/537/05) (setting [7])) was above 100 µM in each case. In addition, the “anti-A/H3N2 activity (in words)” value in the data set with A/H3N2 (A/HK/7/87) was “devoid of antiviral activity”. In the data set “in vitro”, this compound registered a CC50 of 92 µM.
